# Assay results from patent US8093393B2, “Cationic ceramides, and analogs thereof, and their use for preventing or treating cancer” (MUSC Foundation for Research Development, priority 2004, dated 2012).
# Tests used:
# UM-SCC-22A cells = conditions: 1 μM
# Description: B) The subcellular accumulation of L-t-C6-Pyr-Cer at 1-48 hr was detected by LC/MS in UM-SCC-22A cells after differential centrifugation, as described in Materials and Methods.
# Subcellular fractionation, and the analysis of ceramide subspecies by mass spectroscopy (MS). The sub-cellular accumulation of L-t-C6-Pyr-Cer was analyzed by utilizing normal phase high performance liquid chromatography and mass spectroscopy (LC/MS). […] In short, cells were incubated in a buffer containing 300 mM sucrose, 10 mM Hepes (pH 7.4), 1 mM EDTA and 0.5 mM PMSF for 30 minutes on ice. The cells were then passed through 25-gauge needle for 5 strokes, and centrifuged at 1,000×g for 10 mM, 10,000×g for 10 min, and 100,000×g for 60 min at 4° C., for collection of the nuclei-, mitochondria-enriched fractions, and microsomes, respectively.
# hTERT = hTERT mRNA (Q-PCR) and protein (Western blot) in tumor tissues; type: in vivo, human
# From the text: FIG. 29. […] In (B), DNA samples obtained from tumors treated with GMZ (G), L-t-C6-Pyr-Cer (Cer), and the combination of L-t-C6-Pyr-Cer with GMZ (G/C, lanes 2-4, respectively) were compared to that of untreated (U) tumors (lane 1). Lanes 5 and 6 contain DNA samples with low (L) and high (H) molecular weight (3.9 and 10.2 kb, respectively) telomeres. In (D) The levels of hTERT protein in samples obtained from tumors treated with GMZ (G), L-t-C6-Pyr-Cer (Cer), and the combination of L-t-C6-Pyr-Cer with GMZ (G/Cer, lanes 2-4, respectively) were determined by Western blot analysis using rabbit polyclonal anti-hTERT antibody, and compared to that of untreated (U) tumors (lane 1). […]
# Determination of telomerase activity, hTERT mRNA and protein levels in tumor tissues. Telomerase activity in tissues was measured by the PCR-based telomere repeat amplification protocol (TRAP) using TRAPeze kit (Invitrogen) which includes a 36-bp internal control to allow quantification of activity. The intensity of telomere-specific DNA bands, measured using Quantity One (BioRad) software, were normalized to the intensity of internal control bands for each sample on polyacrylamide gels for quantification. […] The protein levels of hTERT in these tumor tissue extracts (in CHAPS buffer) were determined by Western blot analysis using anti-hTERT rabbit polyclonal antibody (CalBiochem) at 1:1000 dilution. […]
# UM-SCC-22A xenografts = conditions: 40 mg/kg alone or plus GMZ 80 mg/kg, 24 days
# Description: Treatment of UM-SCC-22A (hypopharynx) xenografts in SCID mice. […] Once the xenograft achieved a standard volume, the animals were randomized to receive no treatment (control), LCL-194 alone (40 mg/kg), LCL-124 alone (40 mg/kg), LCL-124 (40 mg/kg) plus GMZ (80 mg/kg), GMZ (80 mg/kg)+DOX (2 mg/kg), or 5FU plus cisplatin (25 mg/kg each). Tumors were measured every 4 days for 24 days.
# The compound was further tested in an animal model of SCID mouse and UM-SCC-22A xenografts (hypopharynx). Xenograft development and treatment was carried out by standard methods. Once the xenograft achieved a standard volume, the animals were randomized to receive no treatment (control), LCL-194 alone (40 mg/kg), LCL-124 alone (40 mg/kg), LCL-124 (40 mg/kg) plus GMZ (80 mg/kg), GMZ (80 mg/kg)+DOX (2 mg/kg), or 5FU plus cisplatin (25 mg/kg each). Tumors were measured every 4 days.
smiles,measurement,setting,value
"CCCCCCCCCCCCC/C=C/[C@H](O)[C@H](CO)NC(=O)CCCCC[n+]1ccccc1.[Br-] [LCL124, L-threo-2-N-[6′-(1″-Pyridinium)-hexanoyl]-sphingosine Bromide]","amount in supernatant or pellet of 100,000×g fractions",UM-SCC-22A cells,"either not detectable (at 1-6 hr), or minimal (at 12-48 hr)"
same,"level in the 10,000×g (mitochondria enriched) fraction",UM-SCC-22A cells; 3-48 hr,"1,000-3,000 pmol/0.1 mg protein"
same,"level in the 1,000×g (nuclei enriched) fraction",UM-SCC-22A cells; 6-48 hr,"250-2,500 pmol/0.1 mg protein"
same,hTERT mRNA levels in tumors,hTERT; Q-PCR,decreased levels of hTERT mRNA and protein expression
same,hTERT protein levels in tumors,hTERT; Western blot,decreased levels of hTERT mRNA and protein expression
same,suppression of xenograft tumor growth,UM-SCC-22A xenografts,can act alone or in combination with GMZ to suppress growth of chemotherapy-resistant classes of tumors
